{
  "source": "ChEMBL document CHEMBL5465560",
  "about": "“Selectivity Literature for EUbOPEN Chemogenomic Library” (2024)",
  "key": {"[1]": {"target": "T1, Serine/threonine-protein kinase Nek10 (Homo sapiens) (UniProt Q6ZWH5)", "T1 sequence (whole entry)": "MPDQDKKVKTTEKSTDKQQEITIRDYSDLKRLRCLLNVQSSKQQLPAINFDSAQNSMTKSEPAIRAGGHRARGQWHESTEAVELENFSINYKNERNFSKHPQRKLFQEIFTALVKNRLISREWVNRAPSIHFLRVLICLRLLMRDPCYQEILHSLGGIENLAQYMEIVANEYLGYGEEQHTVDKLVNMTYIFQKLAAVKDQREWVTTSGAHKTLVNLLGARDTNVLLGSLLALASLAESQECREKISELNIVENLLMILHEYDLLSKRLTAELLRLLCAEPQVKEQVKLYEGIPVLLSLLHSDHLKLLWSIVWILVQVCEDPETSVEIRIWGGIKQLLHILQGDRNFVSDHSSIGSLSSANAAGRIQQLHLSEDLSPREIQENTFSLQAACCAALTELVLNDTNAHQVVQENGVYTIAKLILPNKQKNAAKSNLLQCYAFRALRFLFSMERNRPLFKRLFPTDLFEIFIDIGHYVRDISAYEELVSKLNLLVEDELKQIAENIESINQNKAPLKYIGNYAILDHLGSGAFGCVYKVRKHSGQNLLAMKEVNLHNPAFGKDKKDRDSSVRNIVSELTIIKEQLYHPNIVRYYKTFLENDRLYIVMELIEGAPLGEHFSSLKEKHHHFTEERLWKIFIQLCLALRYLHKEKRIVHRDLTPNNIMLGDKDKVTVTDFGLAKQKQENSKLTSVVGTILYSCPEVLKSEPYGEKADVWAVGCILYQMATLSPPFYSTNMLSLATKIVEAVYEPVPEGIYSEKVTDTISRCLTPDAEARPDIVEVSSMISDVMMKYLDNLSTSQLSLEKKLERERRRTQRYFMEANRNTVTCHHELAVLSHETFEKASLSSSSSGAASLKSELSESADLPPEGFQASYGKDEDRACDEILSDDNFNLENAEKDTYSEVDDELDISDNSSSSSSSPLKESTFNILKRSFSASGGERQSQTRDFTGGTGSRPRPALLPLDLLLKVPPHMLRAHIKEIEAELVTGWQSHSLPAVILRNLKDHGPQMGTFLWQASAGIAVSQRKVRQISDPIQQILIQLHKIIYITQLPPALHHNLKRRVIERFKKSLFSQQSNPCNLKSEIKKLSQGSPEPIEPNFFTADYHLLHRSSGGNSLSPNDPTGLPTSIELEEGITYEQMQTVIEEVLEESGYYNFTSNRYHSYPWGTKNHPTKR", "assay": "Selectivity interaction (KinomeScan (DiscoverX)) EUB0000229b NEK10", "conditions": "at 10 µM"}, "[2]": {"tested_on": "Tyrosine-protein kinase ABL1 (Homo sapiens), P00519 [F317I]", "sequence (P00519 whole entry F317I)": "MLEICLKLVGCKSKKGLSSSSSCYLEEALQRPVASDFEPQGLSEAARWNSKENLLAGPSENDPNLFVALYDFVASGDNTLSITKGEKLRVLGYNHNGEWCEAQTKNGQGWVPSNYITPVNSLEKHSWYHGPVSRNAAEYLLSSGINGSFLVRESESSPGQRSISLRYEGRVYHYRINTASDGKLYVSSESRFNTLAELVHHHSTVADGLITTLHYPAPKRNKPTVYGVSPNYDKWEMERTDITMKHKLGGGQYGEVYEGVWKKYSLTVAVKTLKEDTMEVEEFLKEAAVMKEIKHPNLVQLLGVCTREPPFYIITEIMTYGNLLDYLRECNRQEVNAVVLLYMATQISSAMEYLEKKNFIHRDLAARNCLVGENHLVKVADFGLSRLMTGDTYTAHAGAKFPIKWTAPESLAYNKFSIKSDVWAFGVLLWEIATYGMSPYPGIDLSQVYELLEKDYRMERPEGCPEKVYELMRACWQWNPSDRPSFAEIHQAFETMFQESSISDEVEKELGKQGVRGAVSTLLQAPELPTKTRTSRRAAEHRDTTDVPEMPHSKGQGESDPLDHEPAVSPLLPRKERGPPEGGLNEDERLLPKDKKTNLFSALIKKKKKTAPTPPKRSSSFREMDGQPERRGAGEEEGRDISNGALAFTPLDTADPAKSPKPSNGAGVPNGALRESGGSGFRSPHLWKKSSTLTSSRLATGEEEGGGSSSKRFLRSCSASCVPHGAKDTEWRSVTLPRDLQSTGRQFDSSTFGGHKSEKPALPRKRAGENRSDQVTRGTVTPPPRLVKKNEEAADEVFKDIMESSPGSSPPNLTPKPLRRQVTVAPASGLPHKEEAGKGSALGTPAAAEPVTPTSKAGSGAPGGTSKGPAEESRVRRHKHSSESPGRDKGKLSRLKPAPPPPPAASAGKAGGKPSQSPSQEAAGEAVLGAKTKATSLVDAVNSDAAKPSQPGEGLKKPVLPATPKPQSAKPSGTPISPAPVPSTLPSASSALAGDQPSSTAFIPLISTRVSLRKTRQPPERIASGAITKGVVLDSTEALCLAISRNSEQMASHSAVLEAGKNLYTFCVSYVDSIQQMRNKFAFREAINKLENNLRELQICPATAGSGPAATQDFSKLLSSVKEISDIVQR", "conditions": "at 10 µM"}, "[3]": {"target": "Mitogen-activated protein kinase kinase kinase 8 (Homo sapiens, UniProt P41279)", "sequence (P41279 whole entry)": "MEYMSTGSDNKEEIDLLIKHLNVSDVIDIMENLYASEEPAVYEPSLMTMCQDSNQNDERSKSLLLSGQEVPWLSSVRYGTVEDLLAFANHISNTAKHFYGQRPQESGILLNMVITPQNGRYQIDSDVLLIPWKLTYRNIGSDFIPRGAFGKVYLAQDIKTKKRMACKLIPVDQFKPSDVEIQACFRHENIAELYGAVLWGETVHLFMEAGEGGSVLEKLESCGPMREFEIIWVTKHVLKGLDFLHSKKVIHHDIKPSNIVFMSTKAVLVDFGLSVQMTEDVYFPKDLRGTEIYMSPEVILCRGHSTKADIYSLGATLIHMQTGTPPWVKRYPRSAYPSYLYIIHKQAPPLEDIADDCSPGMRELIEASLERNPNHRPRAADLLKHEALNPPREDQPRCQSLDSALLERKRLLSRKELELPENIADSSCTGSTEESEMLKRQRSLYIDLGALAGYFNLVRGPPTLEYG", "assay": "Selectivity interaction (Kinase panel (33PanQinase(R) Activity Assay)) EUB0000877a MAP3K8"}, "[4]": {"target": "T2, Protein kinase C iota type (Homo sapiens) (UniProt P41743)", "T2 sequence (whole entry)": "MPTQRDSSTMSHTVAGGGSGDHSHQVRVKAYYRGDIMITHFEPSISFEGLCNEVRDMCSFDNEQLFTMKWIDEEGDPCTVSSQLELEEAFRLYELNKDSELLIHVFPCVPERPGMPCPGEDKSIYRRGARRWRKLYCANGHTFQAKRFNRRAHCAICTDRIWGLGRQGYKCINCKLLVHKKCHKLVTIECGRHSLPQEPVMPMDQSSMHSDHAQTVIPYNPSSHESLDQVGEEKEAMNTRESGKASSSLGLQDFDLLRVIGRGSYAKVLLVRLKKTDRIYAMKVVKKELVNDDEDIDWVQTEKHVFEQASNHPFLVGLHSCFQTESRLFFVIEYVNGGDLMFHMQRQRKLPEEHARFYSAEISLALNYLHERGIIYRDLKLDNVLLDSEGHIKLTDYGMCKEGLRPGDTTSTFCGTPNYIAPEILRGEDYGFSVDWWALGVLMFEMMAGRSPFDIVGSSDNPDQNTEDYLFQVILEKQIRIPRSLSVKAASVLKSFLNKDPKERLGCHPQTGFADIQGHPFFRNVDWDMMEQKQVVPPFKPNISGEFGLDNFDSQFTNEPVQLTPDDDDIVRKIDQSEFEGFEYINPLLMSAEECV", "assay": "Selectivity interaction (KinomeScan (DiscoverX)) EUB0001619a PRKCI", "conditions": "at 1 µM"}, "[5]": {"target": "T3, Serine/threonine-protein kinase Sgk1 (Homo sapiens) (UniProt O00141)", "T3 sequence (whole entry)": "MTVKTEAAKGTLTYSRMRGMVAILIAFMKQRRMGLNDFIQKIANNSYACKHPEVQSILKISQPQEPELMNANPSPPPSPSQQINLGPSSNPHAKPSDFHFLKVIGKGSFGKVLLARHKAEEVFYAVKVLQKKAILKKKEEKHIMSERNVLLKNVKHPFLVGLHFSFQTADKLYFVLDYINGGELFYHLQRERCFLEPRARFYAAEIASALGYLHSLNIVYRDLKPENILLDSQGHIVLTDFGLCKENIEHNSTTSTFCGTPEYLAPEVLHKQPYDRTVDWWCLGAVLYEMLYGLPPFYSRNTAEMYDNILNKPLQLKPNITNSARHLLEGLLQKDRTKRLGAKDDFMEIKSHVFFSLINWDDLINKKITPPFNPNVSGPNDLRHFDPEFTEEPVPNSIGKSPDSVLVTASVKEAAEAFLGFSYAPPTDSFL", "assay": "Selectivity interaction (ActivX KiNativ screen (kinase selectivity in THP-1 cell lysates)) EUB0000639a SGK1", "type": "subcellular", "conditions": "lysate"}},
  "data": [
    {"smiles": "COc1cc(N(C)c2ccnc3ccc(C(F)(F)F)cc23)cc(OC)c1OC", "values": [
      {"measurement": "% binding", "setting": "[1]", "result": 100, "unit": "%"}
    ]},
    {"smiles": "Cc1cc([C@@H](C)Nc2ccccc2C(=O)O)c2nc(N3CCOCC3)cc(=O)n2c1", "note": "[AZD-6482]", "values": [
      {"measurement": "% of control", "setting": "[2]", "result": 100, "unit": "%"}
    ]},
    {"smiles": "CCC(=O)N1CC[C@H](Nc2ncnc3c2CN(c2cnc(OC)c(C(F)(F)F)c2)CC3)C1", "note": "[LENIOLISIB]", "values": [
      {"measurement": "IC50", "setting": "[3]", "result": "> 10", "unit": "µM"}
    ]},
    {"smiles": "N#Cc1cccc(-c2c[nH]c3ncnc(N4CCOCC4)c23)c1", "values": [
      {"measurement": "% of control", "setting": "[4]", "result": 100, "unit": "%"}
    ]},
    {"smiles": "CC[C@@H]1[C@H](F)C(=O)N[C@@H]1COc1nccc2cc(C(N)=O)c(OC)cc12", "note": "[ZIMLOVISERTIB]", "values": [
      {"measurement": "% of inhibition", "setting": "[5]; at 0.01 µM", "result": -1, "unit": "%"},
      {"measurement": "% of inhibition", "setting": "[5]; at 0.04 µM", "result": 3.1, "unit": "%"},
      {"measurement": "% of inhibition", "setting": "[5]; at 0.2 µM", "result": -5.7, "unit": "%"},
      {"measurement": "% of inhibition", "setting": "[5]; at 1 µM", "result": -1, "unit": "%"},
      {"measurement": "% of inhibition", "setting": "[5]; at 5 µM", "result": -1.4, "unit": "%"}
    ]}
  ]
}
